Read-outs that look alike come from different tables or passages of the source.
Columns and labels:
S. epidermis = conditions: cited from earlier work
Candida albicans = conditions: oral isolate, human buccal epithelial cells; concentration dependent; cited from earlier work
E. coli [1] = conditions: urine isolate, human uroepithelial cells; concentration dependent; cited from earlier work
[2] = mice; cited from earlier work
[3] = mouse, in vivo; cited from earlier work
E. coli [4] = conditions: 0.2 mL of 20% solution in 5% polyvinyl pyrrolidone intravenous; E. coli intraperitoneal; cited from earlier work
[5] = clinical and bacteriologic outcomes, endotoxemia, organ failure, 28-day mortality; cited from earlier work
[6] = test system: Staphylococcus Aureus (VISA, MRSA); conditions: pH 7.0 to pH 5.0; cited from earlier work
whole blood = experiment: Clotting of whole pig blood mixed with taurolidine solution with or without ACD-A; conditions: pig blood filled to 30 mL, inspected after 30 minutes
Procedure: A 0.5% solution of taurolidine in Ringer-lactate solution (Thomae, Biberach, Germany) was introduced into each of four polyethylene bottles having a 30 mL volume. Filling volumes were 5, 10, and 15 mL. One bottle was filled with 5 mL of the taurolidine solution and 2 mL ACD-A (Fresenius, Bad Homburg, Germany) solution. ACD-A solution is used for the conservation of whole blood and contains per liter: 22.0 grams of sodium citrate dihydrate, 7.3 grams of citric acid and 34.5 grams of glucose monohydrate.
Blood was collected at the slaughter house from a female pig directly from the slaughter wound into the containers that were then filled up to the 30 mL level. The containers were capped and gently moved to mix blood with the solution. The containers were inspected after 30 minutes. Blood in the containers containing only taurolidine was clotted, but the blood in the container containing the mixture of taurolidine and ACD-A was not clotted.

[7] = Long term stability of taurolidine in solution; assay type: physicochemical; conditions: citric acid and sodium citrate buffer, compared with PVP solutions
Source text: In addition, citric acid is a known antioxidant. The buffer system created by adjustment of pH using sodium hydroxide also resists changes in the pH due to the oxidation of formaldehyde to formic acid.

B. fragilis = conditions: 0.2 mL of 20% solution in 5% polyvinyl pyrrolidone intravenous; B. fragilis intraperitoneal; cited from earlier work

**Q.** With `CN[C@H](CC(C)C)C(=O)N[C@H]1C(=O)N[C@@H](CC(N)=O)C(=O)N[C@H]2C(=O)N[C@H]3C(=O)N[C@H](C(=O)N[C@H](C(=O)O)c4cc(O)cc(O)c4-c4cc3ccc4O)[C@H](O)c3ccc(c(Cl)c3)Oc3cc2cc(c3O[C@@H]2O[C@H](CO)[C@@H](O)[C@H](O)[C@H]2O[C@H]2C[C@](C)(N)[C@H](O)[C@H](C)O2)Oc2ccc(cc2Cl)[C@H]1O` [Vancomycin] as the compound, how does the Bactericidal concentration (S. epidermis; initial inocula 10^3 CFU/mL) read?
**A.** The Bactericidal concentration was 6.7 µg/mL.

**Q.** Which Anti-adherence activity (Candida albicans) does the source give for `[H]/N=C(\N/C(=N/[H])NCCCCCCNC(=N)NC(=N)Nc1ccc(Cl)cc1)Nc1ccc(Cl)cc1` [chlorhexidine] here?
**A.** Its Anti-adherence activity is “significant”.

**Q.** What about the Anti-adherence activity (E. coli [1]) of the same compound?
**A.** Its Anti-adherence activity is “significant”.

**Q.** For `O=C(O)CN(CCN(CC(=O)O)CC(=O)O)CC(=O)O` [disodium EDTA, ethylenediaminetetraacetic acid], which Bactericidal concentration (S. epidermis; initial inoculum 10^3 CFU per mL, in 24 hours) is on record?
**A.** Its Bactericidal concentration is 20000 µg/mL.

**Q.** For `O=S1(=O)CCN(CN2CCS(=O)(=O)NC2)CN1` [taurolidine, bis-(1,1-dioxo-perhydroxy-1,2,4-thiadiazin-4-yl)methane], which “Intraperitoneal LD50” value [2] is on record?
**A.** Its value is about 1500 mg/kg.

**Q.** What about the Teratogenicity [3] of the same compound?
**A.** Its Teratogenicity is “non-teratogenic”.

**Q.** And the “Taurolidine solubility believed reachable” value (additional citric acid, without polyol or PVP)?
**A.** Its value is 5%.

**Q.** What about the “Taurolidine in solution achieved” value (approximately 2.6% by weight citric acid, no PVP or polyol, pH 5.2 to 5.3) of the same compound?
**A.** The value was 4.0 weight percent.

**Q.** What about the Anti-adherence activity (Candida albicans) of the same compound?
**A.** The Anti-adherence activity was “significant”.

**Q.** What about the Mortality rate (E. coli [4]) of the same compound?
**A.** The Mortality rate was “very significantly reduce the mortality rate”.

**Q.** What about the “Therapeutic effect on outcome” value [5] of the same compound?
**A.** The value was “no beneficial therapeutic effect”.

**Q.** What about the “Dependence of activity on pH” value [6] of the same compound?
**A.** Its value is “increases with decreasing pH”.

**Q.** And the “Blood clotting on inspection” value (whole blood)?
**A.** The value was “clotted”.

**Q.** And the “Stability of taurolidine in solution” value [7]?
**A.** The value was “increases the stability”.

**Q.** What about the Mortality rate (B. fragilis) of the same compound?
**A.** Its Mortality rate is “very significantly reduce the mortality rate”.

**Q.** What about the Anti-adherence activity (E. coli [1]) of the same compound?
**A.** The Anti-adherence activity was “significant”.

**Q.** Which Inhibition of growth (S. epidermis; isolate from catheter of infected patient) does the source give for heparin here?
**A.** Its Inhibition of growth is “does not inhibit the growth”.

**Q.** What does the source list for povidone-iodine?
**A.** Anti-adherence activity (Candida albicans): significant; Anti-adherence activity (E. coli [1]): significant
